Assay results from patent US11447504B2, “Macrocyclic chlorine substituted indole derivatives” (Bayer Aktiengesellschaft, priority 2017, dated 2022).
Structures can show the parent of a compound that is named as a salt. Where two headings read alike, the source gives them in different places.

Assays:
[1] = test system: SUDHL5; assay: Induction of cytotoxicity (Assay 6), SUDHL5
[2] = test system: SUDHL5; assay: Antiproliferation assay 7, SUDHL5; format: cell-based; conditions: SUDHL5 cells, CellTiter-Glo, read-out: Antiproli SUDHL5 IC50 (median)
In short: (§1)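 Anti-proliferative effect is determined from CellTiter-Glo signal after a 72-hour incubation at 37° C, with a time-zero reference plate measured in parallel.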

[3] = test system: AMO-1; assay: Antiproliferation assay 7, AMO-1; format: cell-based; conditions: AMO-1 cells, CellTiter-Glo, read-out: Antiproli AMO-1 IC50 median
In short: as §1

[4] = test system: SUDHL10; assay: Induction of caspase-3/7 activity (Assay 4), SUDHL10; format: cell-based; conditions: SUDHL10 cells
In short: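 SUDHL10 DLBCL cells treated with compounds for 3 hours at 37 °C in a humidified incubator. Caspase-3/7 activity read with Caspase-Glo 3/7 luminescent reagent. Medium-only background subtracted from all values.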

[5] = test system: SUDHL10; assay: Induction of cytotoxicity (Assay 6), SUDHL10
[6] = test system: SUDHL5; assay: Induction of caspase-3/7 activity (Assay 4), SUDHL5; format: cell-based; conditions: SUDHL5 cells
In short: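 DLBCL cells treated with compounds for 3 hours at 37° C. Caspase-3/7 activity measured by Caspase-Glo 3/7 luminescence, with medium-only background subtracted.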

[7] = test system: MV-4-11; assay: Antiproliferation assay 7, MV-4-11; format: cell-based; conditions: MV-4-11 cells, CellTiter-Glo, read-out: Antiproli MV-4-11 IC50 median
In short: as §1

[8] = test system: SK-BR-3; assay: Antiproliferation assay 7, SK-BR-3; format: cell-based; conditions: Homo sapiens; SK-BR-3 cells, 72 hours, CellTiter-Glo; read-out: Antiproli SK-BR-3 IC50 median
Method: (§2) Assessment of the Anti-Proliferative Effect of Compounds in Different Cell Lines
(§3) The impact of compounds on the proliferation of different cell lines was assessed using the CellTiter-Glo® Luminescent Cell Viability reagent from Promega (G7573).
(§4) In parallel, cells were plated in a reference (day 0) plate for time zero determination.
(§5) Rim wells were excluded. The cells were incubated for 72 hours in a humidified incubator at 37° C. The day 0 plate was measured by adding 30 μL/well of CTG solution (CellTiter-Glo® Luminescent Cell Viability reagent, Promega G7573) to time zero wells in the reference plate followed by a 10 minutes incubation and luminescence reading at 0.1 ms. using the PHERAstar FS microplate reader (BMG Labtech).
(§6) After 72 hours incubation, the treated plates were measured in the same way as the day 0 plate mentioned above.

[9] = target: T1, MCL-1 (Homo sapiens (Human), UniProt Q07820, K194A/K197A/R201A); assay: Protein-compound interaction assay (SPR assay 8); format: binding; conditions: immobilized MBP-MCL-1, 25° C.; for Kd: read-out: KD (geo mean)
Description: Assay 8 Protein-Compound Interaction Assay (SPR Assay)
The ability of the compounds described in this invention to bind to MCL-1 may be determined using surface plasmon resonance (SPR). This allows for the quantification of binding in terms of the equilibrium dissociation constant (KD [M]), as well as association and dissociation rate constants (kon [1/M 1/s] and koff [1/s], respectively). The measurements may be performed using Biacore® T200 or Biacore® S200 instruments (GE Healthcare).
MBP-MCL-1 was diluted in 1×PBS-P+ (GE Healthcare) and injected on the activated chip surface. Subsequently, a solution of 1 M ethanolamine-HCl (GE Healthcare) was injected to block unreacted groups, resulting in approximately 400-2500 response units (RU) of immobilized protein. A reference surface was generated by treatment with NHS-EDC and ethanolamine-HCl.
The double-referenced sensorgrams were fit to a simple reversible Langmuir 1:1 reaction mechanism as implemented in the Biacore® T200 and S200 evaluation software (T200 evaluation software version 2.0 and S200 evaluation software version 1.0, GE Healthcare).

[10] = target: T1, MCL-1; assay: Protein-protein interaction assay MCL-1/Noxa BH3 peptide (MCL-1 Assay, TR-FRET); format: binding; conditions: read-out: MCL-1 Assay IC50 (median)
[11] = test system: HMC-1-8; assay: Antiproliferation assay 7, HMC-1-8; format: cell-based; conditions: HMC-1-8 cells, CellTiter-Glo, read-out: Antiproli HMC-1-8 IC50 median
In short: as §1

[12] = test system: SUDHL10; assay: Antiproliferation assay 7, SUDHL10; format: cell-based; conditions: Homo sapiens, SU-DHL10, 72 h, SUDHL10 cells, CellTiter-Glo, read-out: Antiproli SUDHL10 IC50 (median)
Method: as §2, §3, §4, §5, §6

[13] = Homo sapiens, SU-DHL-5, 5 h, read-out: Cytotox SUDHL5 IC50 (median), SUDHL5 cells, 5 hours, CellTiter-Glo
[14] = Homo sapiens, SU-DHL10, 3 h, Caspase-Glo 3/7, read-out: Caspase SUDHL10 EC50 (median)
[15] = Homo sapiens, SU-DHL10, 5 h, read-out: Cytotox SUDHL10 IC50 (median), SUDHL10 cells, 5 hours, CellTiter-Glo
[16] = Homo sapiens, SU-DHL-5, 3 h, Caspase-Glo 3/7, read-out: Caspase SUDHL5 EC50 (median)
[17] = read-out: Cytotox SUDHL5 IC50 (median), SUDHL5 cells, 5 hours, CellTiter-Glo
[18] = 3 hours, Caspase-Glo 3/7, read-out: Caspase SUDHL10 EC50 (median)
[19] = read-out: Cytotox SUDHL10 IC50 (median), SUDHL10 cells, 5 hours, CellTiter-Glo
[20] = 3 hours, Caspase-Glo 3/7, read-out: Caspase SUDHL5 EC50 (median)

T1 sequence (Q07820 whole entry K194A/K197A/R201A, looked up): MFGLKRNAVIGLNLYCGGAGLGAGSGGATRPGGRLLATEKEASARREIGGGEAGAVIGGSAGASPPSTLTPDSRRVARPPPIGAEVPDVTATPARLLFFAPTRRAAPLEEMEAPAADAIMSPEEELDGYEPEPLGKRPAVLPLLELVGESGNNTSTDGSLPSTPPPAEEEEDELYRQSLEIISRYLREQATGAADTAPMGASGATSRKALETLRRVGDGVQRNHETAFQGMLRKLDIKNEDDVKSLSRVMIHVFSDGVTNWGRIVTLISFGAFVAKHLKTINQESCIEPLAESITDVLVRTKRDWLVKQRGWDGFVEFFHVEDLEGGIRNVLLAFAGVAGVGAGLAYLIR

Row | SMILES | IC50 ([2]; Homo sapiens, SU-DHL-5, 72 h) [nM] | EC50 [4, 14] [nM] | EC50 [6, 16] [nM] | IC50 ([7]; Homo sapiens, MV4-11, 72 h) [nM] | IC50 [8] [nM] | IC50 ([2]; 72 hours) [nM] | Kd [9] [nM] | EC50 [4, 18] [nM] | IC50 [10] [nM] | EC50 [6, 20] [nM] | IC50 [1, 13] [nM] | IC50 ([3]; Homo sapiens, AMO1, 72 h) [nM] | IC50 [5, 15] [nM] | IC50 [1, 17] [nM] | IC50 ([3]; 72 hours) [nM] | IC50 [5, 19] [nM] | IC50 ([11]; 72 hours) [nM] | IC50 ([11]; 72 h) [nM] | further results
1 | Cc1c2c(nn1CCCN1CCN(C)CC1)COCCCCn1c(C(=O)O)c(CCCOc3cccc4ccccc34)c3ccc(Cl)c-2c31 (single isomer, unassigned; enantiomer 1) [Example 49, (+)-4-chloro-3-methyl-2-[3-(4-methylpiperazin-1-yl)propyl]-7-{3-[(naphthalen-1-yl)oxy]propyl}-2,10,11,12,13,15-hexahydropyrazolo[4′,3′:9,10][1,6]oxazacycloundecino[8,7,6-hi]indole-8-carboxylic Acid (Enantiomer 1)] | – | – | – | – | – | 480 | 1.7 | 450 | 0.75 | 520 | – | – | – | 660 | 1340 | 620 | 3060 | – | –
2 | Cc1c2c(nn1C)CN(C)CCCCn1c(C(=O)O)c(CCCOc3cccc4ccccc34)c3ccc(Cl)c-2c31 (racemic) [Example 11, (rac)-4-chloro-2,3,14-trimethyl-7-[3-(naphthalen-1-yloxy)propyl]-10,11,12,13,14,15-hexahydro-2H-pyrazolo[3′,4′:8,9][1,6]diazacycloundecino[10,11,1-hi]indole-8-carboxylic Acid] | 300 | 260 | 140 | 442 | 1480 | – | – | – | – | – | 180 | 728 | 370 | – | – | – | – | 4190 | –
3 | Cc1c2c(nn1C)N(C)CCCCCn1c(C(=O)O)c(CCCOc3cccc4ccccc34)c3ccc(Cl)c-2c31 (single isomer, unassigned) [Example 72, (+)-4-chloro-2,3,15-trimethyl-7-{3-[(naphthalen-1-yl)oxy]propyl}-10,11,12,13,14,15-hexahydro-2H-pyrazolo[4′,3′:4,5][1,6]diazacycloundecino[3,2,1-hi]indole-8-carboxylic acid] | 1200 | – | – | – | – | – | 11 | 1900 | 0.96 | 700 | – | – | – | 880 | 1700 | 1600 | – | 19000 | koff ([9]; read-out: koff (geo mean)): 0.016 s⁻¹; kon ([9]; read-out: kon (geo mean)): 1.4e+06 M⁻¹ s⁻¹
4 | Cc1c2c(nn1C)COCC1CC1Cn1c(C(=O)O)c(CCCOc3cccc4ccccc34)c3ccc(Cl)c-2c31 (single isomer, unassigned; stereoisomer 1) [Example 65, (9aS,10aR or 9aR, 10aS)-3-chloro-4,5-dimethyl-14-{3-[(naphthalen-1-yl)oxy]propyl}-5,7,9a, 10,10a, 11-hexahydro-9H-cyclopropa[3,4]pyrazolo[4′,3′:9,10][1,6]oxazacycloundecino-[8,7,6-hi]indole-13-carboxylic Acid—Stereoisomer 1] | – | – | 410 | – | – | – | 3.6 | 570 | 0.92 | – | – | 1420 | – | 410 | – | 400 | 7580 | – | –
5 | Cc1c2c(nn1C)CN(C)CCCCn1c(C(=O)O)c(CCCOc3cccc4cc(F)ccc34)c3ccc(Cl)c-2c31 (single isomer, unassigned; enantiomer 1) [Example 31, (+)-4-chloro-7-{3-[(6-fluoronaphthalen-1-yl)oxy]propyl}-2,3,14-trimethyl-10,11,12,13,14,15-hexahydro-2H-pyrazolo[3′,4′:8,9][1,6]diazacycloundecino[10,11,1-hi]indole-8-carboxylic acid-N-ethylethanamine Salt (Enantiomer 1)] | – | – | – | – | – | 53 | 0.43 | 65 | 0.71 | 55 | – | – | – | 53 | 174 | 82 | 1920 | – | IC50 ([7]; 72 hours): 275 nM

More lines, main results first:

Row | IC50 ([2]; Homo sapiens, SU-DHL-5, 72 h) [nM] | EC50 [4, 14] [nM] | EC50 [6, 16] [nM] | IC50 ([7]; Homo sapiens, MV4-11, 72 h) [nM] | IC50 [8] [nM] | IC50 ([2]; 72 hours) [nM] | Kd [9] [nM] | EC50 [4, 18] [nM] | IC50 [10] [nM] | EC50 [6, 20] [nM] | SMILES | IC50 [1, 13] [nM] | IC50 ([3]; Homo sapiens, AMO1, 72 h) [nM] | IC50 [5, 15] [nM] | IC50 [1, 17] [nM] | IC50 ([3]; 72 hours) [nM] | IC50 [5, 19] [nM] | IC50 ([11]; 72 hours) [nM] | IC50 ([11]; 72 h) [nM] | further results
6 | 280 | 270 | 140 | 692 | 894 | – | – | – | – | – | CCc1c2c(nn1C)CN(C)CCCCn1c(C(=O)O)c(CCCOc3cccc4ccccc34)c3ccc(Cl)c-2c31 (racemic) [Example 22, (rac)-4-chloro-3-ethyl-2,14-dimethyl-7-[3-(naphthalen-1-yloxy)propyl]-10,11,12,13,14,15-hexahydro-2H-pyrazolo[3′,4′:8,9][1,6]diazacycloundecino[10,11,1-hi]indole-8-carboxylic Acid] | 160 | 659 | 400 | – | – | – | – | – | –
7 | – | – | – | – | 2520 | 220 | – | – | – | 140 | CCc1c2c(nn1C)COCCCCn1c(C(=O)O)c(CCCOc3cccc4ccccc34)c3ccc(Cl)c-2c31 (single isomer, unassigned; enantiomer 1) [Example 20, 4-chloro-3-ethyl-2-methyl-7-[3-(naphthalen-1-yloxy)propyl]-2,10,11,12,13,15-hexahydropyrazolo[4′,3′:9,10][1,6]oxazacycloundecino[8,7,6-hi]indole-8-carboxylic Acid (Enantiomer 1)] | – | 874 | – | 170 | – | – | – | 2470 | IC50 [12]: 450 nM; IC50 ([7]; 72 hours): 907 nM
8 | 570 | 320 | 340 | 1650 | 3260 | – | – | – | – | – | CCc1c2c(nn1C)COCCCCn1c(C(=O)O)c(CCCOc3cccc4ccccc34)c3ccc(Cl)c-2c31 (racemic) [Example 19, (rac)-4-chloro-3-ethyl-2-methyl-7-[3-(naphthalen-1-yloxy)propyl]-2,10,11,12,13,15-hexahydropyrazolo[4′,3′:9,10][1,6]oxazacycloundecino[8,7,6-hi]indole-8-carboxylic Acid] | 480 | – | 440 | – | – | – | – | – | –
